Laboratory results from ChEMBL document CHEMBL3745655, “Novel carbocyclic nucleoside analogs suppress glomerular mesangial cells proliferation and matrix protein accumulation through ROS-dependent mechanism in the diabetic milieu. II. Acylhydrazone-functionalized pyrimidines” (Bioorg Med Chem Lett, 2016).
The source made the active and inactive calls. No cut-off for these calls is given here.

Columns and labels:
Assay type in all cases: functional
[1] = Antidiabetic activity in 24 hrs serum-deprived rat glomerular mesangial cells assessed as reduction of high glucose-induced fibronectin and beta-actin expression ratio at 0.5 uM after 48 hrs by Western blot analysis relative to control
[2] = Antidiabetic activity in 24 hrs serum-deprived rat glomerular mesangial cells assessed as reduction of high glucose-induced fibronectin and beta-actin expression ratio at 1 uM after 48 hrs by Western blot analysis relative to control
[3] = Antidiabetic activity in 24 hrs serum-deprived rat glomerular mesangial cells assessed as reduction of high glucose-induced fibronectin and beta-actin expression ratio at 5 uM after 48 hrs by Western blot analysis relative to control
[4] = Antidiabetic activity in 24 hrs serum-deprived rat glomerular mesangial cells assessed as reduction of high glucose-induced fibronectin and beta-actin expression ratio at 0.25 uM after 48 hrs by Western blot analysis relative to control
Rattus norvegicus = organism: Rattus norvegicus; assay: Protection against high glucose-induced increase of cell proliferation in rat glomerular mesangial cells after 48 hrs by MTT assay
[5] = Antidiabetic activity in 24 hrs serum-deprived rat glomerular mesangial cells assessed as reduction of high glucose-induced ROS production at 5 uM after 48 hrs by DHE staining
[6] = Antidiabetic activity in 24 hrs serum-deprived rat glomerular mesangial cells assessed as reduction of high glucose-induced ROS production at 1 uM after 48 hrs by DHE staining

| SMILES | Ratio [1] | Ratio [2] | Ratio [3] | Ratio [4] | Activity (Rattus norvegicus) | Activity [5] | Activity [6] |
| --- | --- | --- | --- | --- | --- | --- | --- |
| Nc1ccn(CCC(=O)N/N=C2\C[C@H](C(=O)O)[C@H](C(=O)O)C2)c(=O)n1 (racemic) | 143 | 142 | 113 | 136 |  |  |  |
| Cc1cn(CCC(=O)NN)c(=O)nc1O | 89.2 | 94 | 102 |  |  |  |  |
| O=C(CCn1ccc(O)nc1=O)N/N=C1\C[C@H](C(=O)O)[C@H](C(=O)O)C1 (racemic) | 80 | 96.7 | 117 | 75.1 |  |  |  |
| CCOC(=O)C1CCC/C1=N\NC(=O)CCn1ccc(O)nc1=O (racemic) | 127 | 126 | 106 |  |  |  |  |
| NNC(=O)CCn1ccc(O)nc1=O | 101 | 80.5 | 85.4 |  | Active | Active |  |
| CCOC(=O)[C@@H]1CC(=NNC(=O)CCn2ccc(N)nc2=O)C[C@H]1C(=O)OCC (racemic) | 98.2 | 96.1 | 80.6 |  | inactive |  |  |
| CCOC(=O)C1CCC/C1=N\NC(=O)CCn1ccc(N)nc1=O (racemic) | 111 | 119 | 102 |  |  |  |  |
| Cc1cn(CCC(=O)NN=C2C[C@@H](C(=O)O)[C@H](C(=O)O)C2)c(=O)nc1O (racemic) | 78.4 | 64.6 | 63.1 |  | Active |  | Active |
| O=C(CCn1ccc(O)nc1=O)NN=C1CCCC1 | 100 | 84.8 | 64.3 |  | Active |  | Active |
| CCOC(=O)[C@@H]1CC(=NNC(=O)CCn2ccc(O)nc2=O)C[C@H]1C(=O)OCC (racemic) | 145 | 132 | 94 |  | Active |  | Active |
| Nc1ccn(CCC(=O)NN=C2C[C@@H](C(=O)O)[C@H](C(=O)O)C2)c(=O)n1 (racemic) | 126 | 128 | 107 | 123 |  |  |  |
| O=C1CCCC1 | 101 | 114 | 129 | 82.8 |  |  |  |
| O=C1C[C@@H](C(=O)O)[C@H](C(=O)O)C1 (racemic) | 143 | 149 | 124 | 135 |  |  |  |
| CCOC(=O)[C@H]1C/C(=N\NC(=O)CCn2cc(C)c(O)nc2=O)C[C@H]1C(=O)OCC (racemic) | 91.9 | 97.9 | 81.1 |  |  |  |  |
| O=C1C[C@H](C(=O)O)[C@H](C(=O)O)C1 | 149 | 145 | 121 | 129 |  |  |  |
| CCOC(=O)[C@H]1CC(=O)C[C@H]1C(=O)OCC | 79.8 | 88.9 | 84.2 | 81.8 |  |  |  |
| CCOC(=O)[C@H]1C/C(=N\NC(=O)CCn2ccc(O)nc2=O)C[C@H]1C(=O)OCC (racemic) | 97.5 | 93.7 | 76.5 |  | inactive |  |  |
| CCOC(=O)C1CCC/C1=N\NC(=O)CCn1cc(C)c(O)nc1=O (racemic) | 88.8 | 96.5 | 91.6 |  | inactive |  |  |
| CCOC(=O)[C@@H]1CC(=O)C[C@H]1C(=O)OCC (racemic) | 90.2 | 86.3 | 79.7 | 82.4 |  |  |  |
| CCOC(=O)C1CCCC1=O (racemic) | 110 | 88.3 | 137 | 109 |  |  |  |
| Cc1cn(CCC(=O)N/N=C2\C[C@H](C(=O)O)[C@H](C(=O)O)C2)c(=O)nc1O (racemic) | 80.1 | 72 | 70.7 |  | Active |  | Active |
| CCOC(=O)[C@@H]1CC(=NNC(=O)CCn2cc(C)c(O)nc2=O)C[C@H]1C(=O)OCC (racemic) | 94.2 | 90.8 | 87.6 |  |  |  |  |
| Nc1ccn(CCC(=O)NN=C2CCCC2)c(=O)n1 | 218 | 213 | 275 |  |  |  |  |
| Cc1cn(CCC(=O)NN=C2CCCC2)c(=O)nc1O | 118 | 126 | 127 |  |  |  |  |
| O=C(CCn1ccc(O)nc1=O)NN=C1C[C@@H](C(=O)O)[C@H](C(=O)O)C1 (racemic) | 116 | 115 | 96.9 | 132 |  |  |  |
| NNC(=O)CCn1ccc(N)nc1=O | 76.5 | 81.6 | 80.8 |  |  |  |  |
| CCOC(=O)[C@H]1C/C(=N\NC(=O)CCn2ccc(N)nc2=O)C[C@H]1C(=O)OCC (racemic) | 95.1 | 91 | 125 |  |  |  |  |
